In BindingDB's records for doi:10.7270/Q2WW7G03 (The Scripps Research Institute Molecular Screening Center, 2007):

Target: T1, 5-hydroxytryptamine receptor 1A (Homo sapiens, UniProt P08908)
T1 sequence (P08908 whole entry): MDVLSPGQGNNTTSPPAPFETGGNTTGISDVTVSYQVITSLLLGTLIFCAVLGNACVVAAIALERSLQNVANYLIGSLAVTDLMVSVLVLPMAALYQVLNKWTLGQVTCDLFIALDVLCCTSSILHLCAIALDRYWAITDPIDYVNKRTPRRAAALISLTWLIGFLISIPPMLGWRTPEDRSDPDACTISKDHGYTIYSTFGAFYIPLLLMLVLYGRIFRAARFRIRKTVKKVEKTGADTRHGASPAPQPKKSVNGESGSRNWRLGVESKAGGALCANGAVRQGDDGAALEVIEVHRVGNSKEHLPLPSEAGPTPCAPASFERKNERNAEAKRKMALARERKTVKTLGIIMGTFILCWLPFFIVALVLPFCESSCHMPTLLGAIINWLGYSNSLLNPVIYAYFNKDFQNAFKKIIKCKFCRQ
Assay: serotonin 1A receptor activation, dose response (AID 718)
Conditions: pH 7.4; 23 °C

| Compound | EC50 [µM] |
| --- | --- |
| CN1CCN(C(N=O)c2nonc2N)CC1 (stereo not drawn) | 50 |
| CCOC(=O)C1C(C)=NC(=O)NC1c1ccc(OCC(=O)Nc2ccccc2)c(OC)c1 (stereo not drawn) [SMR000093032] | 50 |
| Cn1cc(C(Cc2ccccc2)N=O)c2ccccc21 (stereo not drawn) [1-(1-methyl-3-indolyl)-2-phenylethanone oxime] | 50 |
